# US20210292306A1, “NOVEL INDOLE DERIVATIVE AND ANTI-CANCER CONPOSITION CONTAINING SAME” (KOREA RESEARCH INSTITUTE OF BIOSCIENCE AND BIOTECHNOLOGY, priority 2016, published 2021)
# Experiments:
# K562/ADR = assay: Anti-proliferative activity in cancer cells showing multiple drug resistance (MTT assay); type: cell-based; conditions: ratio of IC50 K562/ADR to IC50 K562
# Protocol: (§1) HeLa cells (ATCC, USA), which are a human cervical cancer cell line, were dispensed into a 96-well plate at 2×10^3 cells/well, and the cells were treated with DMSO or the indole derivatives of the present invention, and then allowed to grow for 4 days. And then, MTT (3-(4,5-Dimethylthiazol-2-yl)-2,5-diphenyltetrazolium bromide) reagent was added to the wells at 10 μl/well. After 2 hours, the absorbance was measured at “OD 450” and statistical values were obtained using the plizm6 program. The data represent mean values of the results of two repeated assays (Table 1). Specifically, K562 and MCF7 (Bio Evaluation Center, Korea Research Institute of Bioscience and Biotechnology, Korea), and K562/ADR and MCF7/ADR (Bio Evaluation Center, Korea Research Institute of Bioscience and Biotechnology, Korea), which are multiple drug-resistant cell lines of the above mentioned cell lines, respectively, were cultured on a microtiter plate at 1-3×10^3 cells/well.
# MCF7/ADR = assay: as above; type: cell-based; conditions: ratio of IC50 MCF7/ADR to IC50 MCF7
# Protocol: as §1
# [1] = test system: human-derived skin cancer cell line (A431); assay: Anti-cancer effect in human-derived skin cancer cell (A431) implantation nude mouse model; type: in vivo, BALB/C female nude mouse; conditions: for tumor growth inhibition: day 23; for tumor weight reduction: excised A431 tumors weighed
# Protocol: The human cancer cell line A431 which was kept frozen in liquid nitrogen was thawed and cell culture was conducted. Cells were cultured in a CO2 incubator (Forma, USA) at 37° C. and 5% CO2 for an appropriate period of time. On the last day of culture, all cancer cells were collected and counted and the cell concentration was adjusted to 1×10^7 cells/ml using serum free media. The culture solution thus prepared was injected subcutaneously in the axillary region between the scapula and chest wall in an amount of 0.3 ml per BALB/C female nude mouse (5 weeks old, Nara Biotech) (3×10^6 cells/mouse). […] To examine the toxicity levels of the repeated intraperitoneal administration of WCI-1031 to A431 cancer cell implantation nude mice, general symptoms and weight changes of the animals were observed during the administration period. […] On day 23 after the start of the drug administration, blood was taken from the mice through ophthalmic veins 2 hours after the last administration, and the mice were sacrificed using CO2 gas. Then the mice were photographed and the tumors was isolated and weighed in a chemical balance. After taking photographs, each tumor was divided in half, and the resultant tumors were fixed to liquid nitrogen and formalin, respectively.
Compound,Resistance factor (K562/ADR),Resistance factor (MCF7/ADR),"tumor growth inhibition ([1]; colchicine 0.07 mg/kg, days 0-23, p<0.05) [%]","tumor weight reduction ([1]; colchicine 0.07 mg/kg, p<0.05) [%]","tumor growth inhibition ([1]; 5-FU 2 mg/ml at 10 ml/kg, days 0-2, 5-9, 12-16, 19-23, p<0.01) [%]","tumor weight reduction ([1]; 5-FU 2 mg/ml at 10 ml/kg, p<0.05) [%]"
"CC[C@]1(O)C[C@@H]2CN(CCc3c([nH]c4ccccc34)[C@@](C(=O)OC)(c3cc4c(cc3OC)N(C)[C@H]3[C@@](O)(C(=O)OC)[C@H](OC(C)=O)[C@]5(CC)C=CCN6CC[C@]43[C@@H]65)C2)C1 [Vinblastine, vinblastine]",15.63,18.17,–,–,–,–
"COc1cccc2c1C(=O)c1c(O)c3c(c(O)c1C2=O)C[C@@](O)(C(=O)CO)C[C@@H]3O[C@H]1C[C@H](N)[C@H](O)[C@H](C)O1 [Doxorubicin, doxorubicin]",767.91,169.57,–,–,–,–
"CC(=O)O[C@H]1C(=O)[C@@]2(C)[C@H]([C@H](OC(=O)c3ccccc3)[C@]3(O)C[C@H](OC(=O)[C@H](O)[C@@H](NC(=O)c4ccccc4)c4ccccc4)C(C)=C1C3(C)C)[C@]1(OC(C)=O)CO[C@@H]1C[C@@H]2O [Taxol, taxol]",519.6,438.38,–,–,–,–
"COc1cc2c(c(OC)c1OC)-c1ccc(OC)c(=O)cc1[C@@H](NC(C)=O)CC2 [colchicine, reference compound]",22.91,34.15,17.6,17.6,–,–
"O=c1[nH]cc(F)c(=O)[nH]1 [Example 5-FU, 5-FU, reference compound]",–,–,–,–,20.7,20.8
